# Test results as given in patent publication US20080063628A1, “METHODS TO PROMOTE CELL DIFFERENTIATION” (priority 2006, published 2008).
# Assays:
# [1] = tested on: amniotic fluid-derived cell line; test: 6 hour trichostatin A treatment, gene expression by RT-PCR (Example 10); format: cell-based, human; conditions: for Gata1 gene expression / HNF-3 beta gene expression / Insulin gene expression / Pdx-1 gene expression / sox17 gene expression: 1.25 μM for 6 h then removed
# Description: (§1) Amniotic fluid derived cells or pancreas-derived cells were seeded into 24-well tissue culture plates at a density of 5000/cm^2 and cultured in AMNIOMAX (Invitrogen) or DMEM with 10% FBS respectively under standard cell culture conditions until confluency was reached. Upon reaching confluency, amniotic fluid derived cells were treated with 1.25 μM trichostatin A and pancreas-derived stromal cells were treated with 5.0 μM trichostatin A. The media was changed 6 hours following the addition of trichostatin A and cultures were maintained for the remainder of the experiment. Several cell lines obtained from amniotic fluid (see Example 14) and pancreas (see Example 13) were tested.
# (§2) RNA samples were obtained at the time the trichostatin A was removed and 24 hours from the start of the experiment. The culture media was removed and cells were washed with PBS then collected in RLT Lysis Buffer with β-mercaptoethanol (Qiagen). RNA was purified using the RNeasy Mini Kit (Qiagen) and RNA quantity and quality was determined using a spectrophotometer. cDNA was made using the iScript cDNA synthesis kit (BioRad). Human pancreas cDNA was included as a control. Results were normalized against GAPDH expression levels.
# (§3) The expression levels of Sox17, HNF-3 beta, Pdx-1, Insulin, and Gata-1 were analyzed in amniotic-derived cells while the expression levels of glucagon, insulin, PDX-1 and HNF-3 beta were analyzed in pancreas-derived cells. 20 ng of cDNA was used in each RT-PCR reaction, which was performed on the Applied Biosystems 7500, according to the methods described in Example 15. Data was analyzed using the accompanying software.
# (§4) Real-time PCR amplifcation and quantitative analysis. Unless otherwise stated, all reagents were purchased from Applied Biosystems. Real-time PCR reactions were performed using the ABI PRISM™ 7500 Sequence Detection System. TAQMAN™ FAST UNIVERSAL PCR MASTER MIX™ (ABI, CA) was used with 20 ng of reverse transcribed RNA in a total reaction volume of 20 μl. Each cDNA sample was run in duplicate to allow correction of pipetting errors. Primers and FAM-labeled TAQMAN™ probes were used at concentrations of 200 nM. The level of expression for each target gene was normalized using the pre-developed Applied Biosystem's human glyceraldehyde-3-phosphate dehydrogenase (GAPDH) endogenous control kit. Primers and probes were designed using either ABI PRISM PRIMER EXPRESS™ software or a pre-developed ABI gene analysis kit. For each gene, either one of the primers or the probe were designed to be exon-boundary spanning. This eliminated the possibility of the primers/probe binding to any genomic DNA present. The primer and probe sets are listed as follows: Pdx-1 (Hs00426216), Insulin (Hs00355773), glucagon (Hs00174967), and FoxA2 (HNF 3-beta) (Hs00232764). The remaining primers were designed using the PRIMERS program (ABI, CA). After an initial 95° C. incubation for 20 sec, samples were cycled 40 times in two stages: a denaturation step at 95° C. for 3 sec, followed by an annealing/extension step at 60° C. for 30 sec.
# (§5) For each primer/probe set, a cycle time value was determined as the cycle number at which the fluorescence intensity of the PCR reaction reached a specific value in the middle of the exponential region of amplification. An increase in expression of a gene corresponded to a decrease in the number of cycles required for the fluorescence intensity to reach this value.
# [2] = tested on: late passage (P11) pancreatic-derived stromal cell line; test: as above; format: cell-based, human; conditions: for HNF-3 beta gene expression / Insulin gene expression / Pdx-1 gene expression / glucagon gene expression: 5 μM for 6 h then removed
# Description: as §1, §2, §3, §4, §5
# [3] = 5.0 μM, following 6 h treatment
compound,measurement,setting,value
CC(/C=C/C(=O)NO)=C\[C@@H](C)C(=O)c1ccc(N(C)C)cc1 [trichostatin A],Gata1 gene expression,[1]; 6 hrs,nd (not detectable at >40 cycles by RT-PCR)
same,HNF-3 beta gene expression,[1]; 6 hrs,+++ (detectable at less than 35 cycles by RT-PCR with SE less than 0.9)
same,Insulin gene expression,[1]; 6 hrs,nd (not detectable at >40 cycles by RT-PCR)
same,Pdx-1 gene expression,[1]; 6 hrs,+ (detectable between 35 and 40 cycles by RT-PCR)
same,sox17 gene expression,[1]; 6 hrs,+++ (detectable at less than 35 cycles by RT-PCR with SE less than 0.9)
same,Gata1 gene expression,[1]; 24 hrs,nd (not detectable at >40 cycles by RT-PCR)
same,HNF-3 beta gene expression,[1]; 24 hrs,+++ (detectable at less than 35 cycles by RT-PCR with SE less than 0.9)
same,Insulin gene expression,[1]; 24 hrs,nd (not detectable at >40 cycles by RT-PCR)
same,Pdx-1 gene expression,[1]; 24 hrs,nd (not detectable at >40 cycles by RT-PCR)
same,sox17 gene expression,[1]; 24 hrs,+++ (detectable at less than 35 cycles by RT-PCR with SE less than 0.9)
same,Pdx-1 RT-PCR detection cycle,"[1]; 1.25 μM, after treatment (37 before treatment)",35 cycles
same,HNF-3 beta RT-PCR detection cycle,"[1]; 1.25 μM, following 6 h treatment",32 cycles
same,HNF-3 beta RT-PCR detection cycle,"[1]; 1.25 μM, following the wash",35 cycles
same,HNF-3 beta gene expression,[2]; 6 hrs,+ (detectable between 35 and 40 cycles by RT-PCR)
same,Insulin gene expression,[2]; 6 hrs,nd (not detectable at >40 cycles by RT-PCR)
same,Pdx-1 gene expression,[2]; 6 hrs,+ (detectable between 35 and 40 cycles by RT-PCR)
same,glucagon gene expression,[2]; 6 hrs,+ (detectable between 35 and 40 cycles by RT-PCR)
same,HNF-3 beta gene expression,[2]; 24 hrs,nd (not detectable at >40 cycles by RT-PCR)
same,Insulin gene expression,[2]; 24 hrs,nd (not detectable at >40 cycles by RT-PCR)
same,Pdx-1 gene expression,[2]; 24 hrs,nd (not detectable at >40 cycles by RT-PCR)
same,glucagon gene expression,[2]; 24 hrs,+ (detectable between 35 and 40 cycles by RT-PCR)
same,HNF-3 beta RT-PCR detection cycle,[2]; [3],36 cycles
same,Pdx-1 RT-PCR detection cycle,[2]; [3],37 cycles
same,glucagon RT-PCR detection cycle,[2]; [3],37 cycles
same,glucagon RT-PCR detection cycle,"[2]; 5.0 μM, following the removal",35 cycles
